Laboratory results as given in patent US10781204B2, “TYK2 inhibitors and uses thereof” (Nimbus Lakshmi, Inc., priority 2015, dated 2020).

Key:
[1] = system: Tyk2-pSTAT4 (IL-12 induced pSTAT4); test: IL-12 induced pSTAT4 in human PBMC; type: cell-based; details: 1.7 ng/mL IL-12, 30 minutes
Method in brief: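 pSTAT4 and total STAT4 quantified by MSD in cell lysates after 30 minutes of 1.7 ng/mL IL-12 stimulation. Beforehand, compound (0.1% DMSO final) sat 1 hr at 37 C on 200,000 thawed buffy-coat PBMC per well in serum-containing medium.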

TYK2 = TYK2 (Homo sapiens (Human), UniProt P29597); test: Tyk2 radioactive kinase assay; type: biochemical; details: ATP 10 μM
Method in brief: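 Recombinant human TYK2 (Invitrogen) was mixed with 20 μM peptide substrate in a buffer of 20 mM Hepes pH 7.5, 10 mM MgCl2, 1 mM EGTA, 0.02% Brij35, 0.02 mg/mL BSA, 0.1 mM […], 2 mM DTT and 1% DMSO, and compounds in DMSO were added. Adding ^33P-ATP (10 μM ATP) started the reaction, which ran 120 min at room temperature. Mixtures were then spotted onto P81 ion-exchange paper, washed thoroughly in 0.75% phosphoric acid, and counted for radioactivity.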

[2] = system: JAK2-pSTAT5 (GM-CSF induced pSTAT5); test: GM-CSF induced pSTAT5 in human PBMC; type: cell-based; details: 5 ng/mL GM-CSF
Method in brief: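 Thawed human PBMC, 200,000 per well in serum-containing medium, were preincubated 1 hr at 37 C with compound in 0.1% DMSO. GM-CSF at 5 ng/mL final was added for 20 minutes, then pSTAT5 and total STAT5 in lysates were measured by MSD immunoassay.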

JAK2 = JAK2 (Homo sapiens (Human), UniProt O60674); test: JAK2 radioactive kinase assay; type: biochemical; details: ATP 10 μM
Method in brief: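 Radiometric assay in Hepes pH 7.5, MgCl2, EGTA, Brij35, BSA, DTT, 1% DMSO, with 10 μM [33P]ATP, 120 min at room temp; P81 paper capture and counting. […]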

Chain of JAK2 (O60674 whole entry): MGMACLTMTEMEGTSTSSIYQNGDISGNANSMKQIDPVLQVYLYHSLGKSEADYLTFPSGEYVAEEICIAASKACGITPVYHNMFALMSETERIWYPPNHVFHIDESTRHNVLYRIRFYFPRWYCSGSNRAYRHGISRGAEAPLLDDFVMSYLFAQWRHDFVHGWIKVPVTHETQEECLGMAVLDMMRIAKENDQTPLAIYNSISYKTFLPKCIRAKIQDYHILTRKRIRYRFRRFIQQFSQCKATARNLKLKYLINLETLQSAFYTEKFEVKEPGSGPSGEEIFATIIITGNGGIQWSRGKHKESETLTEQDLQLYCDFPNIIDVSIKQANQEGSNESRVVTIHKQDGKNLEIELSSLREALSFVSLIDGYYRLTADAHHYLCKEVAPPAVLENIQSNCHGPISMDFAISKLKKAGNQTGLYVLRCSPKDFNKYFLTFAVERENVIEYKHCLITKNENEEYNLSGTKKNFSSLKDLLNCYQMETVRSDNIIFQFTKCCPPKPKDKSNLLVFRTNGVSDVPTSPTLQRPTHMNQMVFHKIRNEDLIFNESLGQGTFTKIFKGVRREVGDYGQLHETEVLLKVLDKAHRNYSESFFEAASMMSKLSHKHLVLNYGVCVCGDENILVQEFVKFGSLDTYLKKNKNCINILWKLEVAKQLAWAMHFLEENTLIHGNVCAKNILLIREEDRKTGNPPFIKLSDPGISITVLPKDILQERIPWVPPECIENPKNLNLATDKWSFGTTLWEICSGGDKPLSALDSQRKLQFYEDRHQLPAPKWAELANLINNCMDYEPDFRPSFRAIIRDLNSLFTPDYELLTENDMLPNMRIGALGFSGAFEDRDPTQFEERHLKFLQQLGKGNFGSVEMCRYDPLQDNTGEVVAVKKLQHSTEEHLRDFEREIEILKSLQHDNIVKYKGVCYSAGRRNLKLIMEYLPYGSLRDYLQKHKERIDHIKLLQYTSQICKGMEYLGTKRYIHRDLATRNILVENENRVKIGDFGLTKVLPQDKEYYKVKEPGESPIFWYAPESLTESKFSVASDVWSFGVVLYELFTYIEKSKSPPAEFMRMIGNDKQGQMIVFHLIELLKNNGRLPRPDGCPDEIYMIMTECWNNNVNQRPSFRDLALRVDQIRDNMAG
Chain of TYK2 (P29597 whole entry): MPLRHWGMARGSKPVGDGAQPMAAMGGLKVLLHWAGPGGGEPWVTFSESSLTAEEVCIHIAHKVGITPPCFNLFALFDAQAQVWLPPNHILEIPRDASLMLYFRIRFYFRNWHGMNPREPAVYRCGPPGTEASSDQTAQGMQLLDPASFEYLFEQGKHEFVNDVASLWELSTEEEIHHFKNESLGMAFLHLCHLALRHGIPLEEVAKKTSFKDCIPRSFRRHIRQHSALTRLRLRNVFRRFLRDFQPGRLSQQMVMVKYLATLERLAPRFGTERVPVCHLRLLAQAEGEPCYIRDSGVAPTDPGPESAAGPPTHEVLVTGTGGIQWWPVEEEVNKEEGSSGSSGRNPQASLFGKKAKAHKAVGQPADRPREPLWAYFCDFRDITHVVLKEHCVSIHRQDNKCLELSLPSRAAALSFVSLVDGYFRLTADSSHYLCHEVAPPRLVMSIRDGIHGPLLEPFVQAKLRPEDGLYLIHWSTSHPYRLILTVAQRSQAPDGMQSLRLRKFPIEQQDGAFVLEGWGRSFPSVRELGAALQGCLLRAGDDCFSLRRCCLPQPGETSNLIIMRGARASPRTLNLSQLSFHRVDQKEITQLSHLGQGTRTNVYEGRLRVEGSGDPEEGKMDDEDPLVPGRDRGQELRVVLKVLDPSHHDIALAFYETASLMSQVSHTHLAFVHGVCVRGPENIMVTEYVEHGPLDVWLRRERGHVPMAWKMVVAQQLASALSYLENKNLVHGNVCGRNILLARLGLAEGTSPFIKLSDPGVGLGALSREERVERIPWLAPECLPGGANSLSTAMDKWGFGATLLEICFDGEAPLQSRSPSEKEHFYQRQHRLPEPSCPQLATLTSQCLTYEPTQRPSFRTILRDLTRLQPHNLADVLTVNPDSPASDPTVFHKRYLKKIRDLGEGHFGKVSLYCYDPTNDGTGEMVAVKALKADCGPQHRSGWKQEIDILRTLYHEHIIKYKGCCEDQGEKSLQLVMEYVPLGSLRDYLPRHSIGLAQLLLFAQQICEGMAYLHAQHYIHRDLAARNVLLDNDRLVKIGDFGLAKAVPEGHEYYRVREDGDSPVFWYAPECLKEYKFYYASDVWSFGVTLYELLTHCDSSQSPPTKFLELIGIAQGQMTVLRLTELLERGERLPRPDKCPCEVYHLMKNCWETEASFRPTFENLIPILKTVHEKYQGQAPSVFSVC

Row | EC50 ([1]; Homo sapiens, PBMC, 0.5 h) | Ki (TYK2) | EC50 ([2]; Homo sapiens, PBMC, 20 min) | Ki (JAK2) | EC50 [1] | EC50 ([2]; 20 minutes) | SMILES
1 | 0.03 to 0.1 µM | 0.0001 to 0.01 µM | 0.1 to 2 µM | 0.01 to 0.1 µM |  |  | [2H]C([2H])([2H])O[C@H]1CN(c2ccn(-c3cc(-c4c(F)cccc4C#N)nc4c3C(=O)NC4)n2)C[C@H]1O [I-224, 3-fluoro-2-(4-(3-((3R,4S)-3-hydroxy-4-(methoxy-d3)pyrrolidin-1-yl)-1H-pyrazol-1-yl)-5-oxo-6,7-dihydro-5H-pyrrolo[3,4-b]pyridin-2-yl)benzonitrile]
2 | 0.1 to 2 µM | 0.0001 to 0.01 µM | 0.1 to 2 µM | 0.0001 to 0.01 µM |  |  | CN1CCO[C@@H]2CN(c3ccn(-c4cc(-c5c(F)cccc5C#N)nc5c4C(=O)NC5)n3)C[C@@H]21 [I-225, 3-fluoro-2-(4-(3-((4aS,7aR)-4-methylhexahydropyrrolo[3,4-b][1,4]oxazin-6 (2H)-yl)-1H-pyrazol-1-yl)-5-oxo-6,7-dihydro-5H-pyrrolo[3,4-b]pyridin-2-yl)benzonitrile]
3 | 0.03 to 0.1 µM | 0.0001 to 0.01 µM | 0.1 to 2 µM | 0.0001 to 0.01 µM |  |  | CO[C@H]1CN(c2ccn(-c3cc(-c4c(F)cccc4C#N)nc4c3C(=O)NC4)n2)C[C@@]1(C)O [I-226, 3-fluoro-2-(4-(3-((3R,4S)-3-hydroxy-4-methoxy-3-methyl-pyrrolidin-1-yl)-1H-pyrazol-1-yl)-5-oxo-6,7-dihydro-5H-pyrrolo[3,4-b]pyridin-2-yl)benzonitrile]
4 | 0.1 to 2 µM | 0.0001 to 0.01 µM | 0.1 to 2 µM | 0.01 to 0.1 µM |  |  | CC1=C(c2ccn(-c3cc(-c4c(F)cccc4C#N)nc4c3C(=O)NC4)n2)CNC1=O [I-227, 3-fluoro-2-(4-(3-(4-methyl-5-oxo-2,5-dihydro-1H-pyrrol-3-yl)-1H-pyrazol-1-yl)-5-oxo-6,7-dihydro-5H-pyrrolo[3,4-b]pyridin-2-yl)benzonitrile]
5 |  | 0.0001 to 0.01 µM |  | 0.01 to 0.1 µM | 0.1 to 2 µM | 0.1 to 2 µM | CO[C@@H]1CCN(c2ccn(-c3cc(-c4c(F)cccc4C#N)nc4c3C(=O)NC4)n2)C[C@]1(C)O [I-228, 3-fluoro-2-(4-(3-((3S,4R)-3-hydroxy-4-methoxy-3-methylpiperidin-1-yl)-1H-pyrazol-1-yl)-5-oxo-6,7-dihydro-5H-pyrrolo[3,4-b]pyridin-2-yl)benzonitrile]
6 | 0.1 to 2 µM | 0.0001 to 0.01 µM | 0.1 to 2 µM | 0.0001 to 0.01 µM |  |  | CO[C@H]1CN(c2ccn(-c3cc(-c4c(F)cccc4C#N)nc4c3C(=O)NC4)n2)C[C@@]1(C)OC [I-230, 2-(4-(3-((3R,4S)-3,4-dimethoxy-3-methylpyrrolidin-1-yl)-1H-pyrazol-1-yl)-5-oxo-6,7-dihydro-5H-pyrrolo[3,4-b]pyridin-2-yl)-3-fluorobenzonitrile]
7 | > 2 µM | 0.01 to 0.1 µM | > 2 µM | 0.1 to 1 µM |  |  | N#Cc1cccc(F)c1-c1cc(-c2ccn(C(=O)N3CCOCC3)n2)c2c(n1)CNC2=O [I-231, 3-fluoro-2-(4-(1-(morpholine-4-carbonyl)-1H-pyrazol-3-yl)-5-oxo-6,7-dihydro-5H-pyrrolo[3,4-b]pyridin-2-yl)benzonitrile]
8 | > 2 µM | ≥ 1 µM | 0.1 to 2 µM | ≥ 1 µM |  |  | CC(C)c1ncn(-c2cc(-c3c(F)cccc3C#N)nc3c2C(=O)NC3)n1 [I-232, 3-fluoro-2-(4-(3-isopropyl-1H-1,2,4-triazol-1-yl)-5-oxo-6,7-dihydro-5H-pyrrolo[3,4-b]pyridin-2-yl)benzonitrile]
9 | > 2 µM | 0.01 to 0.1 µM | > 2 µM | ≥ 1 µM |  |  | CC(C)c1csc(-c2cc(-c3c(F)cccc3F)nc3c2C(=O)NC3)n1 [I-233, 2-(2,6-difluorophenyl)-4-(4-isopropylthiazol-2-yl)-6,7-dihydro-5H-pyrrolo[3,4-b]pyridin-5-one]
10 | 0.1 to 2 µM | 0.01 to 0.1 µM | > 2 µM | 0.1 to 1 µM |  |  | N#Cc1cccc(F)c1-c1cc(-c2ccn([C@@H]3COC[C@@H]3O)n2)c2c(n1)CNC2=O [I-234, 3-fluoro-2-(4-(1-((3R,4R)-4-hydroxytetrahydrofuran-3-yl)-1H-pyrazol-3-yl)-5-oxo-6,7-dihydro-5H-pyrrolo[3,4-b]pyridin-2-yl)benzonitrile]
